Numbered stars: 1 amine (or outer) side, 2 acyl side, 3 side chain; on linkers, the order of the positions; unused ones are H or OH. Bridge positions count the residues as written; N and C are the ends. Square brackets hold non-standard residues; d marks the D form. Peptide text beside a SMILES is read from it. * marks the point of attachment. C20 diacid = O=C(O)CCCCCCCCCCCCCCCCCCC(=O)*; γGlu = O=C(O)[C@H](CCC(=O)[*:2])N[*:1]; Hyp = O=C(O)[C@@H]1C[C@@H](O)CN1; NMeI = CC[C@H](C)[C@H](NC)C(=O)O; Aad = N[C@@H](CCCC(=O)O)C(=O)O; Sar = CNCC(=O)O
Experiments:
[1] = target: T1, recombinant human amylin 3 receptor (hAMYR3) (Homo sapiens, UniProt O60896+P30988); test: hAMYR3 cAMP assay (AlphaScreen) in 1321N1 cells; format: cell-based; details: cAMP formation, 45 min stimulation
T1 construct: host or cells: human astrocytoma cell line 1321N1
T1 sequence (P30988 25-474): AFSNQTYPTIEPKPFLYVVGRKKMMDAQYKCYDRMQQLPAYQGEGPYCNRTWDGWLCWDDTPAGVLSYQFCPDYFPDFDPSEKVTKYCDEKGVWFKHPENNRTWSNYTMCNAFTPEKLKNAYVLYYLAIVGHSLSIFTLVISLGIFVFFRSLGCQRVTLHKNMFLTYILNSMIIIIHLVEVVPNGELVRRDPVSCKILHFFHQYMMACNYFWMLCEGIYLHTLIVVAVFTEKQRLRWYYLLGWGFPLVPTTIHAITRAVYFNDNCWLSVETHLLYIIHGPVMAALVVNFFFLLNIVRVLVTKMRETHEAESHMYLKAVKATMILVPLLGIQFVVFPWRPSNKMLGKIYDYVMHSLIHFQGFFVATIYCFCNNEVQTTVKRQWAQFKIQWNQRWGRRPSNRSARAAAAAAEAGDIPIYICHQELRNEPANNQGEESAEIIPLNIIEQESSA
T1 sequence (O60896 24-148 partner): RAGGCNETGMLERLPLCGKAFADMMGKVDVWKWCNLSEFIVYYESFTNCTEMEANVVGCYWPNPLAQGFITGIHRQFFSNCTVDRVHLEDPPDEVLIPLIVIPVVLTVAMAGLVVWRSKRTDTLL
Summary of the method: (§1)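 EC50 values come from curve fits over at least 7 peptide concentrations, with cAMP read by AlphaScreen competition after 1 h in the dark. Cells were 1321N1 lines carrying human calcitonin receptor, with RAMP3 co-expressed for AMY3, treated 45 min at room temperature in the presence of IBMX.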

[2] = target: T2, recombinant human calcitonin receptor (hCT-R) (Homo sapiens, UniProt P30988); test: hCT-R cAMP assay (AlphaScreen) in 1321N1 cells; format: cell-based; details: cAMP formation, 45 min stimulation
T2 construct: host or cells: human astrocytoma cell line 1321N1
T2 sequence (P30988 25-474): T1 sequence (P30988 25-474)
Summary of the method: as §1

[3] = Assessment of physical stability: fibril formation by Thioflavin T fluorescence; format: physicochemical; set-up: key: FND = fibrillation not detected; FD = fibrillation detected; details: 1 mg/mL peptide; for Fibrillation (in buffer) pH4 acetate: 50 mM acetate buffer pH 4.0, 96 hours at 40° C.; for Fibrillation (in buffer) pH7 histidine: 50 mM histidine buffer pH 7.0, 96 hours at 40° C.; for Fibrillation (in buffer) pH7 phosphate: 50 mM phosphate buffer pH 7.0, 96 hours at 40° C.
Summary of the method: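 Fibrillation detected (FD) means a significant rise in ThT fluorescence over 96 hours at 40° C, read at 10 min intervals each preceded by 300 s automixing. Samples: 1 mg/mL peptide, 40 μM ThT, in 50 mM phosphate or histidine (pH 7.0) or acetate (pH 4.0), triplicate.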

[4] = Effect on acute food intake and body weight in normal Sprague Dawley rats; format: in vivo, Sprague Dawley (SD) rats; details: vehicle-corrected
Description: Sprague Dawley (SD) rats were obtained from Janvier Labs, France. The animals arrived at least 14 days before the study start to allow acclimatization to experimental conditions. From arrival and throughout the study, the rats were housed in groups of 2 to 4 (n=2-4) in a light-, temperature- and humidity-controlled room. Animals had access ad libitum to food (KLIBA 3430, Provimi Kliba AG, Switzerland) and water (domestic quality tap water) during the entire study. Per group 6-8 rats were included. A vehicle group and positive control group were included in each set of tests. […] Dosing volume was 2 ml/kg. Food intake was recorded online using an automated food intake system (HM02, MBRose, Denmark) for 4 days or manually at 0 h for a predose and then 24, 48, 72 and 96 h post dosing. Body weight was measured daily.
Statistical analyses were performed using GraphPad™ Prism version 7. The measured parameters were compared using two-way ANOVA followed by Dunnett's multiple comparison tests. Differences were considered statistically significant at p<0.05.

[5] = Assessment of chemical stability in 40 mM buffers at 40° C. (RP-HPLC); format: physicochemical; details: 1 mg/mL; for % degradation after 72 h at 40° C. pH4 acetate: acetate buffer pH 4, 72 h; for % degradation after 72 h at 40° C. pH6 phosphate: phosphate buffer pH 6, 72 h; for % degradation after 72 h at 40° C. pH7 phosphate: phosphate buffer pH 7, 72 h
Summary of the method: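 Degradation is the main-peak area-% at each time point minus that at t=0, measured by C8 reversed-phase HPLC (TFA/acetonitrile/water gradient, 220 nm). Incubation at 40° C for 3 or 14 days, 1 mg/mL peptide in 40 mM buffer at pH 4, 6 or 7.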

| EC50 [1] [nM] | EC50 [2] [nM] | Fibrillation (in buffer) pH4 acetate [3] | Fibrillation (in buffer) pH7 histidine [3] | Fibrillation (in buffer) pH7 phosphate [3] | % degradation after 72 h at 40° C. pH4 acetate [5] [%] | % degradation after 72 h at 40° C. pH6 phosphate [5] [%] | % degradation after 72 h at 40° C. pH7 phosphate [5] [%] | % degradation after 14 days at 40° C. pH6 phosphate ([5]; phosphate buffer pH 6, 14 days) [%] | % degradation after 14 days at 40° C. pH7 phosphate ([5]; phosphate buffer pH 7, 14 days) [%] | Structure (SMILES) | Body weight reduction in % at 48 h ([4]; Dose: 30 nmol/kg sc) [%] | Food intake reduction in % at 48 h ([4]; Dose: 30 nmol/kg sc) [%] | Body weight reduction in % at 48 h ([4]; at dose of 10 nmol/kg sc) [%] | Food intake reduction in % at 48 h ([4]; at dose of 10 nmol/kg sc) [%] |
| --- | --- | --- | --- | --- | --- | --- | --- | --- | --- | --- | --- | --- | --- | --- |
| 0.017 | 0.056 | FND | FD | FD | <1 | <1 | <1 | – | – | CC[C@H](C)[C@@H](C(=O)N1CCC[C@H]1C(=O)N[C@@H](CO)C(=O)N[C@@H](CO)C(=O)N[C@H](C(=O)N[C@@H](CCC(=O)O)C(=O)N[C@H](C(=O)NCC(=O)N[C@@H](CO)C(=O)N[C@@H](CC(N)=O)C(=O)N[C@H](C(=O)N1C[C@H](O)C[C@H]1C(N)=O)[C@@H](C)O)C(C)C)[C@@H](C)O)N(C)C(=O)[C@H](C)NC(=O)CN(C)C(=O)[C@H](Cc1ccccc1)NC(=O)[C@H](CO)NC(=O)[C@H](CO)NC(=O)[C@H](CCCNC(=N)N)NC(=O)[C@H](CCC(N)=O)NC(=O)[C@H](CC(C)C)NC(=O)[C@H](Cc1ccccc1)NC(=O)[C@H](Cc1c[nH]cn1)NC(=O)[C@H](C)NC(=O)[C@H](CC(C)C)NC(=O)[C@H](CCCNC(=N)N)NC(=O)[C@H](CCC(N)=O)NC(=O)[C@@H](NC(=O)[C@H](C)NC(=O)[C@@H]1CCCCNC(=O)C[C@H](NC(=O)[C@H](CCCNC(=N)N)NC(=O)CC[C@H](NC(=O)CCCCCCCCCCCCCCCCCCC(=O)O)C(=O)O)C(=O)NCC(=O)N[C@@H]([C@@H](C)O)C(=O)N[C@@H](C)C(=O)N[C@@H]([C@@H](C)O)C(=O)N1)[C@@H](C)O [Compound 15, [19CD]-isoGlu-RD()GTATK()ATQRLAHFLQRSSF-Gly(Me)-A-Ile(Me)-PSSTEVGSNT-Hyp-NH2] ({C20 diacid-γGlu}-RDGTATKATQRLAHFLQRSSF[Sar]A[NMeI]PSSTEVGSNT[Hyp]-NH2; lactam 2-7) | 7.7 | 71 | – | – |
| 0.007 | 0.026 | FD | FND | FND | 2.5 | 2.1 | 1.0 | 1.6 | <1 | CC[C@H](C)[C@@H](C(=O)N[C@@H](CC(C)C)C(=O)N[C@@H](CO)C(=O)N[C@@H](CO)C(=O)N[C@H](C(=O)N[C@@H](CCC(=O)O)C(=O)N[C@H](C(=O)NCC(=O)N[C@@H](CO)C(=O)N[C@@H](CC(N)=O)C(=O)N[C@H](C(=O)N1C[C@H](O)C[C@H]1C(N)=O)[C@@H](C)O)[C@@H](C)O)[C@@H](C)O)N(C)C(=O)[C@H](C)NC(=O)CN(C)C(=O)[C@H](Cc1ccccc1)NC(=O)[C@H](CO)NC(=O)[C@H](CO)NC(=O)[C@H](CCCNC(=N)N)NC(=O)[C@H](CCC(N)=O)NC(=O)[C@H](CC(C)C)NC(=O)[C@H](Cc1ccccc1)NC(=O)[C@H](CCCC(=O)O)NC(=O)[C@H](C)NC(=O)[C@H](CC(C)C)NC(=O)[C@H](CCCNC(=N)N)NC(=O)[C@H](CCC(=O)O)NC(=O)[C@@H](NC(=O)[C@H](C)NC(=O)[C@@H]1CCCCNC(=O)C[C@H](NC(=O)[C@H](CCCNC(=N)N)NC(=O)CC[C@H](NC(=O)CCCCCCCCCCCCCCCCCCC(=O)O)C(=O)O)C(=O)NCC(=O)N[C@@H]([C@@H](C)O)C(=O)N[C@@H](C)C(=O)N[C@@H]([C@@H](C)O)C(=O)N1)[C@@H](C)O [Compound 36, [19CD]-isoGlu-RD()GTATK()ATERLA-Aad-FLQRSSF-Gly(Me)-A-Ile(Me)-LSSTETGSNT-Hyp-NH2] ({C20 diacid-γGlu}-RDGTATKATERLA[Aad]FLQRSSF[Sar]A[NMeI]LSSTETGSNT[Hyp]-NH2; lactam 2-7) | – | – | 5.2 | 44 |

Source: patent US11382956B2, “Amylin analogues” (Zealand Pharma A/S, priority 2016, dated 2022)
